Entries after “also recorded” stand apart in the source; their conditions may differ.
What was measured:
Bacillus subtilis = test: ProTOX (Bs) antibacterial bioassay; format: cell-based
Source text: ProTOX, (alternatively referred to herein as Bs) is an antibacterial bioassay, broadly applicable to most aerobic and anaerobic bacteria. The bioassay features a solid phase agar base into which the test compound has been incorporated together with a chromogen. As the bacteria multiply in the well, the chromogen is metabolised from blue in a two-step process to a colourless compound. Compounds with potent bactericidal activity inhibit bacterial metabolism of the chromogen while bacteriostatic compounds induce limited metabolism as indicated by an intermediate pink colour. ProTOX is broadly applicable to a range of gram-positive and gram-negative bacteria under aerobic and microaerophilic conditions. ProTOX assays were carried out using Bacillus subtilis.
Briefly, in ProTOX, the bacteria (24 hour broth) were applied to the surface of an agar matrix containing the test sample and allowed to grow for 48 hours. The assay was monitored at 24 and 48 hours and the active wells noted. Known antibiotics yield consistent colour transitions which are concentration and time dependent. These patterns provide an important guide to the early recognition of interesting characteristics.

fly eggs = test: DipteraTOX fly development bioassay; set-up: key: A value of A in DipG, Dip P or Dip H represents very active; a value of P represents active; conditions: 250 μg per mL in agar
Protocol: DipteraTOX is referred to herein as DipG, DipP and DipH. DipG represents no grazing of larva. DipP represents no pupae formation and Dip H represents no hatching of flies. A value of A in DipG, Dip P or Dip H represents very active and a value of P represents active. In DipteraTox the fly eggs were applied to the surface of an agar matrix containing 250 μg per mL of the test chemical and allowed to hatch, develop and pupate for a period up of two weeks. The assay was monitored at two discrete times to determine the extent of grazing of the agar matrix at Week 1 and the presence of adult flies at Week 2.

Haemonchus contortus = test: NemaTOX (Ne) anthelmintic larval development bioassay
Protocol: NemaTOX (alternatively referred to herein as Ne) is an anthelmintic bioassay, applicable to all parasitic nematodes with free-living life cycle stages, and can be used as a screen to detect activity and define the species spectrum of compounds against parasitic nematodes and examine the impact of pre-existing resistance to other anthelmintic classes on potency. Haemonchus contortus was utilised for this assay.
The effect on larval development was determined in this assay by the method described by Gill et al. (1995) Int. J. Parasitol. 25: 463-470. Briefly, in this assay nematode eggs were applied to the surface of an agar matrix containing the test sample and allowed to develop through to the L3, infective stage (6 days). At this time the stage of larval development reached and any unusual features (deformity, paralysis, toxicity) were noted by microscopic examination.

Trichophyton rubrum = test: MycoTOX (Tr) antifungal bioassay; format: cell-based
Protocol: MycoTOX (alternatively referred to herein as Tr) is a non-chromogenic bioassay used to detect activity against filamentous fungal pathogens of plants and animals. The bioassay features a solid phase agar base into which the test compound has been incorporated. As the growth patterns of filamentous fungi are readily apparent on the agar surface the extent of mycelial growth, sporulation (if relevant to the species under investigation) and colour changes with maturation are measured.
MycoTOX, involves a fungus (spore suspension or mycelial fragments) being applied to the surface of an agar matrix containing the test chemical and allowed to grow for a period of up to a week (depending on species). The assay is monitored at two discrete times to identify key development phases in the life cycle (for example mycelial growth and extent of sporulation) and the active wells noted. The monitoring times are dependent on the fungal species under investigation.
The MycoTOX assays were carried out using Trichophyton rubrum. The MycoTOX test is alternatively referred to as Tr to indicate the use of Trichophyton rubrum.

[1] = test system: NS1 murine myeloma cell line; test: CyTOX (Cy) chromogenic cytotoxicity bioassay; format: cell-based; conditions: for Cy LD99: weight of chemical in last well with activity, real value may be lower
Source text: CyTOX (alternatively referred to herein as Cy) is a microtitre plate bioassay use to identify potential antitumour actives. CyTOX is a chromogenic bioassay with broad application to a wide range of tumour and non-tumour cell lines.
CyTOX features a liquid media into which the test compound has been incorporated together with a novel chromogen. As the cells grow and divide the chromogen is metabolised from purple in a single step process to a colourless metabolite. CyTOX was undertaken using NS1 murine myeloma cell line as a guide to mammalian cell toxicity.
Briefly, in CyTOX the cells were applied to the media containing the test chemical and allowed to grow for 72 hours. The assay was monitored at 24, 48 and 72 hours and the active wells identified.

PKC = PKC activation in cultured tumour cells (scattering and growth inhibition of MCF7); format: cell-based, human; conditions: defined by scattering and growth inhibition of MCF7 breast cancer cells
MCF-7 = test: Cell scattering of cultured cells; format: cell-based, human
MM96L cell line = test: Changes in morphology of cultured cells; format: cell-based, human
[2] = test system: K562 leukemia, MCF-7 breast cancer, Colo-205 colon cancer and D04 and SKMel-5 melanoma; test: In vitro growth inhibition profile, sensitive versus other cell lines; format: cell-based, human
Protocol: In addition, scattering of MCF-7 and HT-29 colon tumour cells was observed, typical of PKC activators. […] Additionally, given their similarity in structure, EBI-47, EBI-59 and EBI-61 are also considered to be protein kinase C activators.
For growth inhibition assays, cells (2000-5000/well) were seeded in 96-well plates in duplicate, treated with drug next day and allowed to grow for a further 5-6 days. The plates were then washed in PBS (phosphate buffered saline, pH 7.2), fixed with ethanol and stained by addition of 50 μL 0.4% SRB (sulforhodamine) in 1% acetic acid. The plate was left at room temperature for a minimum of 15 minutes, then washed rapidly with tap water and then twice with 1% acetic acid. After addition of 100 μL/well of 10 mM Tris base (unbuffered, pH>9), plates were left for a minimum of 5 minutes, then the absorbance was read at 564 nm on the ELISA reader, with a 3 second prior shaking. After subtraction of a blank (wells with no cells, typically about 0.04), growth inhibition was calculated as % of the untreated control and plotted against dose. […]

Giardia spp. = test: TriTOX (Gi) anti-protozoan bioassay; format: cell-based
Protocol: is a microtitre plate based chromogenic bioassay for the screening of anti-protozoan activity of pathogenic, anaerobic/microaerophilic protozoans for example Giardia spp. and Trichomonas spp. The bioassays are run under anaerobic conditions and features species specific chromogens. The minimum inhibitory concentrations (approximate LD99) are determined by the following method: stock solutions of the unknowns are serially diluted ½ to give 12 concentrations over a 2,048-fold range. Aliquots of each concentration(s) are applied to the wells of 96-well microtitre plates and diluted with media. […] The lowest concentration at which the compound is active is noted as the minimum inhibitory concentration (MIC). Additionally, microscopic inspection is carried out to identify any patterns of morphological change that may be consistent with a type of toxicity and therefore mode of action. Giardia spp. was utilized for this assay.

human melanoma MM418c5 = test: Growth inhibition of cultured cells; format: cell-based
Protocol: (§1) Briefly, a range of tumour cells including mouse melanoma, human melanoma, mouse squamous cell carcinoma, human breast, human colon, human leukemia and human lung and normal human cells including normal human fibroblasts were seeded at 2-5,000 per microtitre well (96-well plate) in 10% FCS-RPMI 1640 culture medium, treated, and allowed to grow until the controls were nearly confluent (5-6 days). The wells were then washed twice with PBS, fix with ethanol for a minimum of 5 minutes and washed with water. SRB solution (50 μL of 0.4% in 1% acetic acid) was added and left at room temperature for a minimum of 15 minutes. The plate was washed rapidly with tap water and then twice with 1% acetic acid. After addition of 100 μL/well of 10 mM Tris base (unbuffered, pH>9), plates were left for a minimum of 5 minutes, then the absorbance was read at 564 nm on the ELISA reader, with a 3 second prior shaking. After subtraction of a blank (wells with no cells, absorbance typically about 0.04), growth inhibition was calculated as % of the untreated control and plotted against dose.
(§2) Briefly, a suspension of a range of tumour cells including mouse melanoma, human melanoma, mouse squamous cell carcinoma, human breast, human colon, human leukemia and human lung and normal human cells including normal human fibroblasts were seeded into round-bottom microtitre plates in 10% FCS-RPMI 1640 culture medium, treated and allowed to grow for 5-6 days. To measure cell growth, 20 μL of a combined MTS/PMS solution (Promega Cell ProliferationAssay Kit Cat #G5430) was added to each well of the 96 well assay plate. After 1-4 hours the plates were placed in the ELISA plate reader and the absorbance read at 490 nm. After subtraction of a blank (wells with no cells, absorbance typically about 0.4), growth inhibition was calculated as % of the untreated control and plotted against dose.

human prostate DU145 = test: Growth inhibition of cultured cells; format: cell-based
Protocol: as §1, §2

human leukemia K562 = test: Growth inhibition of cultured cells; format: cell-based
Protocol: as §1, §2
(§3) For growth inhibition assays, cells (2000-5000/well) were seeded in 96-well plates in duplicate, treated with drug next day and allowed to grow for a further 5-6 days. The plates were then washed in PBS (phosphate buffered saline, pH 7.2), fixed with ethanol and stained by addition of 50 μL 0.4% SRB (sulforhodamine) in 1% acetic acid. The plate was left at room temperature for a minimum of 15 minutes, then washed rapidly with tap water and then twice with 1% acetic acid. After addition of 100 μL/well of 10 mM Tris base (unbuffered, pH>9), plates were left for a minimum of 5 minutes, then the absorbance was read at 564 nm on the ELISA reader, with a 3 second prior shaking. After subtraction of a blank (wells with no cells, typically about 0.04), growth inhibition was calculated as % of the untreated control and plotted against dose.

[3] = test system: normal human fibroblasts (NFF); test: Growth inhibition of cultured cells; format: cell-based
Protocol: as §1, §2, §3

human breast MCF-7 = test: Growth inhibition of cultured cells; format: cell-based; conditions: human breast MCF-7
Protocol: as §1, §2, §3

[4] = weight of chemical in last well with activity, real value may be lower

Row | Molecule | Bs Titre (Bacillus subtilis) | DipH (no hatching of flies) (fly eggs) | DipP (no pupae formation) (fly eggs) | Ne Titre (Haemonchus contortus) | Tr Titre (Trichophyton rubrum) | Cy Titre [1] | Cy LD99 [1] [µg/mL] | PKC activity (PKC) | scattering of MCF-7 cells (MCF-7) | change in morphology of MM96L cells (MM96L cell line) | growth-inhibiting doses in sensitive cell lines lower than for other human tumour cell lines and normal human fibroblasts [2] | Gi Titre (Giardia spp.) | Gi LD99 (Giardia spp.; [4]) [µg/mL] | Ne LD99 (Haemonchus contortus; [4]) [µg/mL] | Concentration of EB548.LA4.61-29/32 At which growth inhibition was observed (human melanoma MM418c5) [µg/mL] | Concentration of EB548.LA4.61-29/32 At which growth inhibition was observed (human prostate DU145) [µg/mL] | Concentration of EB548.LA4.61-29/32 At which growth inhibition was observed (human leukemia K562) [µg/mL] | Concentration of EB548.LA4.61-29/32 At which growth inhibition was observed [3] | Concentration of EB548.LA4.61-29/32 At which growth inhibition was observed (human breast MCF-7) [µg/mL]
1 | CCCCC/C=C/C=C/C=C/C(=O)OC1C(C)C2(O)C(C3OC3(CO)C(O)C3(O)C(=O)C(C)=CC32)C2C(C)(C)C12OC(=O)C(C)CC (centres unmarked) [EBI-59, 12-(dodeca-2,4,6-trienoyl)-13-(2-methylbutanoyl)-6,7-epoxy-4,5,9,12,13,20-hexahydroxy-1-tigliaen-3-one] | 0/— | A/A | A/A | 0/— | 0/— | 16 | 3.9 | yes |  |  |  |  |  |  |  |  |  |  | 
2 | tetradecanoyl phorbol acetate [TPA, reference compound] |  |  |  |  |  |  |  |  | scattering | characteristic change to bipolar morphology; also recorded: extreme bipolar morphology | approximately 100 fold |  |  |  |  |  |  |  | 
3 | CCC(C)C(=O)OC1C(C)C2(O)C(C3OC3(CO)C(O)C3(O)C(=O)C(C)=CC32)C2C(C)(C)C12OC(=O)C(C)CC (centres unmarked) [EBI-47, 12,13-di-(2-methylbutanoyl)-6,7-epoxy-4,5,9,12,13,20-hexahydroxy-tigliaen-3-one] | 0/— | P |  | 2 | 0/— | 4 | 16 | yes |  |  |  | 2 | 31 | 31 | 0.03 | 10 | 0.1 | None observed at 10 μg/mL | 0.03

From patent publication US10980769B2, “Tiglien-3-one derivatives” (QBIOTICS PTY LTD, priority 2005, dated 2021)
